Laboratory results taken from US20180215710A1, “METHODS FOR INHIBITING NATIVE AND PROMISCUOUS UPTAKE OF MONOAMINE NEUROTRANSMITTERS” (priority 2011, published 2018).
Entries after “also recorded” stand apart in the source; their conditions may differ.

Key:
[1] = test system: patients with Major Depressive Disorder; assay: Phase 2 six week double-blind placebo-controlled study in patients with Major Depressive Disorder; type: in vivo, human; details: for CGI-I in comparison to placebo (in words): MITT n=56, MMRM
Text: Subjects were identified who were between the ages of 18-65 (inclusive), and met criteria for Major Depressive Disorder in accordance with the Diagnostic and Statistical manual of Mental Disorders-IV-TR and confirmed by the MINI International Neuropsychiatric Interview. […] They were also required to have a BMI≤35 and body weight>45 kg at the Screening Visit. […] Subjects were required to refrain from taking antidepressants, anticonvulsants including gabapentin and pregabalin, neuroleptics, MAO inhibitors, barbiturates, benzodiazepines, stimulants, antipsychotics, lithium, anxiolytics and beta blockers starting two weeks prior to the study and continuing until after the follow-up visit. Subjects were evaluated for safety parameters prior to and throughout the trial by a variety of measures including electrocardiogram, physical examination, vital signs and body weight, and clinical laboratory testing including a lipid panel, CBC with differential and urinalysis. […] Efficacy was determined by measuring the change from baseline in the Montgomery-Åsberg Depression Rating Scale (MADRS), the HAMD-17, the Clinical Global Impression Global Improvement Scale (CGI-1), the Clinical Global Impression-Severity scale (CGI-S) and the Derogatis Interview for Sexual Functioning Self-Report (DISF-SR). […] Comparisons between treatment groups based on MADRS (the primary efficacy parameter), […] and CGI-S scores were analyzed using a mixed-repeated measures (MMRM) analysis model including factors for Subject, Visit, Treatment Arm and Baseline value as a covariate. Adjusted least-squares means from these models are presented. Comparisons between groups were made at each post-baseline visit using model-based contrasts and adjusted degrees of freedom. For these analyses no explicit data imputations were made prior to the analysis. Response and remission categorical data were analyzed using chi-square tests. Inferential analyses of safety data were conducted with ANOVA models or chi-square tests. Two-tail alpha was set to 0.05. All analyses were conducted using SAS version 9.2.

[2] = Plasma concentration in Phase 1 single-dose PET study; type: in vivo, human; details: ~7 h after single oral dose of 150 mg, N = 3
Text: (§1) PET scans were done at baseline and at 2 and 7-hour post-dose via measurement of [^11C]DASB tracer binding. Periodic blood samples were collected for evaluation of (+)-1-(3,4-dichlorophenyl)-3-azabicyclo[3.1.0]hexane PK. Safety was monitored by clinical and laboratory evaluations, including vital signs, physical examination, clinical chemistry, hematology, urinalysis, and ECG.

[3] = Safety monitoring in Phase 1 single-dose PET study; type: in vivo, human; details: single oral dose of 150 mg
Text: as §1

[4] = biological target: T1, serotonin transporters (SERT) (Homo sapiens, UniProt P31645); assay: Brain SERT occupancy by PET with [11C]DASB tracer, Phase 1 single-dose study; type: in vivo; details: N = 3
T1 construct: from tissue; host or cells: living human brain (3 healthy adult male volunteers), PET with [11C]DASB
Text: This study was a Phase 1, single-dose, randomized, open-label study using positron emission tomography (PET) and [^11C]DASB ([^11C]N,N-dimethyl-2-(2-amino-4-cyanophenylthio) benzylamine) as a PET tracer in 3 healthy, young, adult male volunteer subjects. Using PET imaging, uptake inhibitor effects may be measured based on the proportion of SERT sites blocked in the brain.
as §1

[5] = test system: extracellular norepinephrine and dopamine in prefrontal cortex; details: Bymaster et al. 2002a; cited from earlier work
[6] = 100 mg, Visit 8, LOCF, Completers, 50% reduction or more of baseline total score
[7] = six week double-blind, MITT n=56, MMRM LS means
[8] = ~2 h after single oral dose of 150 mg
[9] = ~7 h after single oral dose of 150 mg

T1 sequence (P31645 whole entry): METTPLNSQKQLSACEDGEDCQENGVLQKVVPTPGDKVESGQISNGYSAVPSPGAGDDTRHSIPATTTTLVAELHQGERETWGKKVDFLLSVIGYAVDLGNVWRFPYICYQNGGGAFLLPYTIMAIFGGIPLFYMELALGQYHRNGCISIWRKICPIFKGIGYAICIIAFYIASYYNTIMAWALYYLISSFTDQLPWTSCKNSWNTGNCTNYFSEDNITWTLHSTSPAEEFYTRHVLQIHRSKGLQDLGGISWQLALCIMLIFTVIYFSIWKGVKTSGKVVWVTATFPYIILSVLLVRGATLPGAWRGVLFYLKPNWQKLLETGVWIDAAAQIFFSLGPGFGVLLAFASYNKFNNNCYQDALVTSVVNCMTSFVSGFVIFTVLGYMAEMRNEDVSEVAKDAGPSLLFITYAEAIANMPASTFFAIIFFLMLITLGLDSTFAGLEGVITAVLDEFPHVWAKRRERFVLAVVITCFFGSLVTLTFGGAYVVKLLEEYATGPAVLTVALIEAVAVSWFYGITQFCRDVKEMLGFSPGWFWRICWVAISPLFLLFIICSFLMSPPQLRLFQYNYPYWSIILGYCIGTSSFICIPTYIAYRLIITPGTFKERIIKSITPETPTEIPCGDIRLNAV

With `Clc1ccc(C23CNCC2C3)cc1Cl` (single isomer, unassigned; (+)) [(+)-1-(3,4-dichlorophenyl)-3-azabicyclo[3.1.0]hexane] the tolerability ([1]; 50 mg/day then 100 mg/day) was “relatively well tolerated”, the “remission rates by CGI-S score of ≤2 compared to placebo (in words)” value ([1]; 100 mg, LOCF) was “significantly greater remission rates” and the “Response rate HAMD-17” value [1, 6] was “(11/20) 55.00%”. The “Response rate MADRS” value [1, 6] was “(8/20) 40.00%”, the “Remission rate CGI-S” value ([1]; 100 mg, Visit 8, LOCF, Completers, CGI-S ≤ 2) was “(7/20) 35.00%” and the “Remission rate HAMD-17” value ([1]; 100 mg, Visit 8, LOCF, Completers, HAMD-17 ≤ 7) was “(4/20) 20.00%”. The “Remission rate MADRS” value ([1]; 100 mg, Visit 8, LOCF, Completers, MADRS ≤ 12) was “(6/20) 30.00%”, the “anhedonia factor score of the MADRS compared to placebo (in words)” value ([1]; MITT n=56, MMRM LS means, listed as EB-1010) was “statistically significant improvement” and the “Anhedonia factor difference placebo vs drug” value ([1]; Visit 8, MMRM, MITT) was 1.41. For the same compound, the “CGI-I difference placebo vs drug” value ([1]; Visit 8, MMRM, MITT) was 0.62, the “CGI-S difference placebo vs drug” value ([1]; Visit 8, MMRM, MITT) was 0.22 and the “HAMD-17 difference placebo vs drug” value ([1]; Visit 8, MMRM, MITT) was 3.12. The “MADRS difference placebo vs drug” value ([1]; Visit 8, MMRM, MITT) was 3.83, the “Anhedonia factor (LS Mean − SE)” value ([1]; Visit 8, MMRM, MITT, n = 30) was 7.92 (0.50) and the “CGI-I (LS Mean − SE)” value ([1]; Visit 8, MMRM, MITT, n = 30) was 2.13 (0.20). The “CGI-S (LS Mean − SE)” value ([1]; Visit 8, MMRM, MITT, n = 30) was 3.31 (0.15), the “HAMD-17 (LS Mean − SE)” value ([1]; Visit 8, MMRM, MITT, n = 30) was 14.90 (1.40) and the “overall statistical effect size (Cohen's d), MADRS total score” value ([1]; Week 6, vs placebo) was −0.63. The “discontinuation due to AEs” value ([1]; compared with placebo) was “Two patients in each treatment group discontinued the study early due to AEs”, the “heart rate, systolic or diastolic blood pressure compared to placebo” value ([1]; human, in vivo) was “did not result in significant increases” and the “serious AEs” value ([1]; human, in vivo) was “no serious AEs were reported”. For the same compound, the weight gain ([1]; human, in vivo) was “not associated with significant weight gain”, the “percentage of patients who reported an adverse treatment event” value ([1]; placebo 39.28%) was 30.30% and the “CGI-I in comparison to placebo (in words)” value ([1]; six week double-blind) was “statistically significantly superior to placebo”. The “CGI-S in comparison to placebo (in words)” value [1, 7] was “improvement”, the “HAM-D in comparison to placebo (in words)” value [1, 7] was “decrease” and the “MADRS total score in comparison to placebo (in words)” value [1, 7] was “statistically significantly superior”. The “MADRS total score in comparison to placebo (in words)” value ([1]; six week double-blind, MITT n=56, MMRM LS means, listed as EB-1010) was “decrease”, the “CGI-I in comparison to placebo (in words)” value ([1]; six week double-blind, listed as EB-1010) was “decrease” and the “efficacy in treating depression (in words)” value ([1]; titrated dose of 50 mg/day then 100 mg/day) was “effective for treatment of patients with MDD; also recorded: efficacious in treating depression”. The “Mean Plasma Concentration” value [2] was roughly 405 ng/mL, the “discontinuation due to a clinical or laboratory adverse experience” value [3] was “no subjects were discontinued” and the laboratory safety tests [3] was “no clinically meaningful changes”. For the same compound, the “physical examinations and ECGs” value [3] was “no clinically meaningful changes from pre-dose evaluations”, the “vital sign measurements (blood pressure, pulse rate, respiratory rate, oral temperature)” value [3] was “No dose-related changes” and the serious adverse events ([3]; 3 healthy male subjects) was “No serious adverse events were reported”. For the same compound, the “total adverse events reported by one subject” value ([3]; rated definitely not related to study drug) was 5, the “Mean SERT Occupancy, Mean” value [4, 8] was “approximately 48%” and the “Mean SERT Occupancy, Striatum” value [4, 8] was 48%. For the same compound, the “Mean SERT Occupancy, Thalamus” value [4, 8] was 48%, the “Mean SERT Occupancy, Striatum” value [4, 9] was 32% and the “Mean SERT Occupancy, Thalamus” value [4, 9] was 33%.
For `CNCC[C@@H](Oc1ccccc1C)c1ccccc1` [atomoxetine], the “extracellular norepinephrine and dopamine concentrations in prefrontal cortex” value [5] is given as “increased extracellular norepinephrine and dopamine concentrations”.
